# Measured values from ChEMBL document CHEMBL1135339, “Structure-activity relationships of novel anti-malarial agents. Part 4: N-(3-benzoyl-4-tolylacetylaminophenyl)-3-(5-aryl-2-furyl)acrylic acid amides” (Bioorg Med Chem Lett, 2002).
# Tested on: Plasmodium falciparum
# Assay: Inhibitory concentration against multidrug-resistant Plasmodium falciparum Dd2.
# Type: functional, organism-based
row,Compound,IC50
1,Cc1ccc(CC(=O)Nc2ccc(NC(=O)/C=C/c3ccc(-c4cccc5ccccc45)o3)cc2C(=O)c2ccccc2)cc1,1 µM
2,Cc1ccc(CC(=O)Nc2ccc(NC(=O)/C=C/c3ccc(-c4ccc(C)cc4)o3)cc2C(=O)c2ccccc2)cc1,0.12 µM
3,CCCOc1ccc(-c2ccc(/C=C/C(=O)Nc3ccc(NC(=O)Cc4ccc(C)cc4)c(C(=O)c4ccccc4)c3)o2)cc1,0.75 µM
4,Cc1ccc(CC(=O)Nc2ccc(NC(=O)/C=C/c3ccc(-c4ccc(Cl)cc4)o3)cc2C(=O)c2ccccc2)cc1,0.145 µM
5,CSc1ccc(-c2ccc(/C=C/C(=O)Nc3ccc(NC(=O)Cc4ccc(C)cc4)c(C(=O)c4ccccc4)c3)o2)cc1,0.084 µM
6,Cc1ccc(CC(=O)Nc2ccc(NC(=O)/C=C/c3ccc(-c4ccccc4[N+](=O)[O-])o3)cc2C(=O)c2ccccc2)cc1,0.67 µM
7,Cc1ccc(CC(=O)Nc2ccc(NC(=O)/C=C/c3ccc(-c4ccccc4)o3)cc2C(=O)c2ccccc2)cc1,0.415 µM
8,CCOc1ccc(-c2ccc(/C=C/C(=O)Nc3ccc(NC(=O)Cc4ccc(C)cc4)c(C(=O)c4ccccc4)c3)o2)cc1,0.3 µM
9,Cc1ccc(CC(=O)Nc2ccc(NC(=O)/C=C/c3ccc(-c4ccc([N+](=O)[O-])cc4)o3)cc2C(=O)c2ccccc2)cc1,0.075 µM
10,Cc1ccc(CC(=O)Nc2ccc(NC(=O)/C=C/c3ccc(-c4cccc([N+](=O)[O-])c4)o3)cc2C(=O)c2ccccc2)cc1,0.59 µM
11,Cc1ccc(CC(=O)Nc2ccc(NC(=O)/C=C/c3ccc(-c4ccc(F)cc4)o3)cc2C(=O)c2ccccc2)cc1,0.32 µM
12,Cc1ccc(CC(=O)Nc2ccc(NC(=O)/C=C/c3ccc(-c4ccc(Br)cc4)o3)cc2C(=O)c2ccccc2)cc1,0.125 µM
13,Cc1ccc(CC(=O)Nc2ccc(NC(=O)/C=C/c3ccc(-c4ccc(C(C)(C)C)cc4)o3)cc2C(=O)c2ccccc2)cc1,0.3 µM
14,Cc1ccc(CC(=O)Nc2ccc(NC(=O)/C=C/c3ccc(-c4ccc5ccccc5c4)o3)cc2C(=O)c2ccccc2)cc1,0.2 µM
15,COc1ccc(-c2ccc(/C=C/C(=O)Nc3ccc(NC(=O)Cc4ccc(C)cc4)c(C(=O)c4ccccc4)c3)o2)cc1,0.13 µM
16,C=Cc1ccc(-c2ccc(/C=C/C(=O)Nc3ccc(NC(=O)Cc4ccc(C)cc4)c(C(=O)c4ccccc4)c3)o2)cc1,0.085 µM
17,CCc1ccc(-c2ccc(/C=C/C(=O)Nc3ccc(NC(=O)Cc4ccc(C)cc4)c(C(=O)c4ccccc4)c3)o2)cc1,0.088 µM
18,Cc1ccc(CC(=O)Nc2ccc(NC(=O)/C=C/c3ccc(-c4ccc(OC(F)(F)F)cc4)o3)cc2C(=O)c2ccccc2)cc1,0.21 µM
